Calls of active or inactive are those of the source. The calls are words filed in the database; no cut-off is given here.
Tests used:
Cytochrome P450 7A1 [1] = target: T1, Cytochrome P450 7A1 (Homo sapiens, UniProt P22680); experiment: Binding affinity to recombinant human CYP7A1 assessed as substrate-type binding by measuring dissociation constant by spectrophotometric titration method; assay type: ADME
MDA-MB-231 [2] = experiment: Antiproliferative activity against human MDA-MB-231 cells assessed as inhibition of cell growth incubated for 72 hrs by MTT assay; assay type: functional, cell-based; details: MDA-MB-231, 72 h
Cytochrome P450 7B1 [3] = target: T2, Cytochrome P450 7B1 (Homo sapiens, UniProt O75881); experiment: Binding affinity to recombinant human CYP7B1 assessed as substrate-type binding by measuring dissociation constant by spectrophotometric titration method; assay type: ADME
T2 sequence (O75881 whole entry): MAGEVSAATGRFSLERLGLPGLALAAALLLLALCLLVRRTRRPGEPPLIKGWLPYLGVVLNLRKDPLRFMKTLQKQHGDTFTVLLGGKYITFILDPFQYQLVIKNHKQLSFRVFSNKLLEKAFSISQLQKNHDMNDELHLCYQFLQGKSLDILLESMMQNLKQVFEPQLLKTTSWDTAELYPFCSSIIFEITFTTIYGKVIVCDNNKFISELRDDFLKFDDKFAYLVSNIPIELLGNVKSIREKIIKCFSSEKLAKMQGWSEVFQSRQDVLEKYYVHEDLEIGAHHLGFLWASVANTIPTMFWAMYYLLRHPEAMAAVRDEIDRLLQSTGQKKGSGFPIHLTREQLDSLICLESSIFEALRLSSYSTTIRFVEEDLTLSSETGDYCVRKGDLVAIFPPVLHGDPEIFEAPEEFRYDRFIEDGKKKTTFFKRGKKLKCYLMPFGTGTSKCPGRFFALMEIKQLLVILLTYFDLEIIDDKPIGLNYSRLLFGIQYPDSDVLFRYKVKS

MCF7 [4] = experiment: Antiproliferative activity against human MCF7 cells assessed as inhibition of cell growth incubated for 72 hrs by MTT assay; assay type: functional, cell-based; details: MCF7, 72 h
[5] = Cytotoxicity against human THP-1 cells assessed as inhibition of cell growth incubated for 72 hrs by MTT assay; assay type: toxicity, cell-based
MCF7 [6] = experiment: Effect on E-cadherin protein expression in human MCF7 cells at 1.7 to 15 uM measured after 48 hrs by immunoblot analysis; assay type: functional, cell-based; details: dose 1.7-15 µM
[7] = Selectivity index, ratio of IC50 for human THP-1 cells to IC50 for human MCF7 cells
MCF7 [8] = experiment: Induction of cell death in human MCF7 cells assessed as reduction in Bcl-2 protein expression measured after 48 hrs by immunoblot analysis; assay type: functional, cell-based; details: dose 1.7-15 µM
MCF7 [9] = experiment: Synergistic antiproliferative activity against human MCF7 cells assessed as reduction in cell viability at 2.4 uM incubated for 72 hrs in presence of AKT inhibitor IV 6-(2-benzothiazolyl)-1-ethyl-2-[2-(methylphenylamino)ethenyl]-3-phenyl-1H-benzimidazolium mono iodide by MTT assay; assay type: functional, cell-based
MCF7 [10] = experiment: Downregulation of cyclin D1 protein expression in human MCF7 cells at 1.7 to 15 uM measured after 48 hrs by immunoblot analysis; assay type: functional, cell-based; details: dose 1.7-15 µM
MCF7 [11] = experiment: Anti-estrogenic activity in human MCF7 cells transfected with luciferase gene under control of estrogen response elements cotransfected with beta-galactosidase assessed as reduction in 17beta-estradiol induced ERalpha protein expression by measuring reduction in luciferase activity measured after 24 hrs; assay type: functional, cell-based; details: dose 1.7-20 µM
MCF7 [12] = experiment: Anti-estrogenic activity in human MCF7 cells assessed as reduction in GREB1 protein expression at 1.7 to 15 uM measured after 48 hrs by immunoblot analysis; assay type: functional, cell-based; details: dose 1.7-15 µM
Aromatase = target: T3, Aromatase (Homo sapiens, UniProt P11511); experiment: Binding affinity to recombinant human CYP19A1 by spectrophotometric titration method; assay type: ADME; details: recombinant enzyme
T3 sequence (P11511 whole entry): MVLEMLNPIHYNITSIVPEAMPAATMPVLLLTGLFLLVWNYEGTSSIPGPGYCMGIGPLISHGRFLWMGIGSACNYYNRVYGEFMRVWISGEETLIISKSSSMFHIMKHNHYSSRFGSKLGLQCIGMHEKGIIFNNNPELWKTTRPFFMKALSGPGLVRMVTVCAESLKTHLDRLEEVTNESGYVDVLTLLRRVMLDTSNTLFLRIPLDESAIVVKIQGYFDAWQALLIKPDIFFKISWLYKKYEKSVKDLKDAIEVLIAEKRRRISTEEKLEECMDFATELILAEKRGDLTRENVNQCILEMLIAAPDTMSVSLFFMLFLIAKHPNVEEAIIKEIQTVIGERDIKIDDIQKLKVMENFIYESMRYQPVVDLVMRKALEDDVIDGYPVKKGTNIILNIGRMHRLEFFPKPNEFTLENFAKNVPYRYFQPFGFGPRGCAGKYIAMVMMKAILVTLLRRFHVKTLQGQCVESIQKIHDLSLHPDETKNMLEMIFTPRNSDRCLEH

MCF7 [13] = experiment: Anti-estrogenic activity in human MCF7 cells assessed as reduction in ERalpha protein expression at 1.7 to 15 uM measured after 48 hrs by immunoblot analysis; assay type: functional, cell-based; details: dose 1.7-15 µM
MCF7 [14] = experiment: Induction of cell death in human MCF7 cells assessed as accumulation of cleaved PARP level at 1.7 to 15 uM measured after 48 hrs by immunoblot analysis; assay type: functional, cell-based; details: dose 1.7-15 µM
MCF7 [15] = experiment: Downregulation of CDK4 protein expression in human MCF7 cells at 1.7 to 15 uM measured after 48 hrs by immunoblot analysis; assay type: functional, cell-based; details: dose 1.7-15 µM
Cytochrome P450 7B1 [16] = target: T2, Cytochrome P450 7B1; experiment: Binding affinity to recombinant human CYP7B1 by spectrophotometric titration method; assay type: ADME; details: recombinant enzyme
Steroid 21-hydroxylase = target: T4, Steroid 21-hydroxylase (Homo sapiens, UniProt P08686); experiment: Binding affinity to recombinant human CYP21A2 by spectrophotometric titration method; assay type: ADME; details: recombinant enzyme
T4 sequence (P08686 whole entry): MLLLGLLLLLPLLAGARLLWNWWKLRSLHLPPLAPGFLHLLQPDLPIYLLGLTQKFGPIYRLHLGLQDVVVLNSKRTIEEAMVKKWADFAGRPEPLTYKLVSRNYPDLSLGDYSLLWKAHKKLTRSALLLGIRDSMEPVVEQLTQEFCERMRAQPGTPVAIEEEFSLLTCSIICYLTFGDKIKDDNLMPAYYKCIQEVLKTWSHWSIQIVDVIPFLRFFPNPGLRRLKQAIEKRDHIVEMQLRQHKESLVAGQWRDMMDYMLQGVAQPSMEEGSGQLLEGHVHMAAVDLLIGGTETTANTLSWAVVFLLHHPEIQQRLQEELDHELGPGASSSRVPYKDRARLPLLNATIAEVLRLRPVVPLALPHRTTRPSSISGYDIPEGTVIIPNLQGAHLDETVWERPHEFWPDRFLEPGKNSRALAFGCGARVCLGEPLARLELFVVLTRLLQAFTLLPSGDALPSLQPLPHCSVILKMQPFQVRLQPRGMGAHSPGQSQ

MCF7 [17] = experiment: Effect on activated AKT protein level in human MCF7 cells at 1.7 to 15 uM measured after 48 hrs by immunoblot analysis; assay type: functional, cell-based; details: dose 1.7-15 µM
[18] = target: T5, Steroid 17-alpha-hydroxylase/17,20 lyase (Homo sapiens, UniProt P05093); experiment: Binding affinity to recombinant human CYP17A1 by spectrophotometric titration method; assay type: ADME; details: recombinant enzyme
T5 sequence (P05093 whole entry): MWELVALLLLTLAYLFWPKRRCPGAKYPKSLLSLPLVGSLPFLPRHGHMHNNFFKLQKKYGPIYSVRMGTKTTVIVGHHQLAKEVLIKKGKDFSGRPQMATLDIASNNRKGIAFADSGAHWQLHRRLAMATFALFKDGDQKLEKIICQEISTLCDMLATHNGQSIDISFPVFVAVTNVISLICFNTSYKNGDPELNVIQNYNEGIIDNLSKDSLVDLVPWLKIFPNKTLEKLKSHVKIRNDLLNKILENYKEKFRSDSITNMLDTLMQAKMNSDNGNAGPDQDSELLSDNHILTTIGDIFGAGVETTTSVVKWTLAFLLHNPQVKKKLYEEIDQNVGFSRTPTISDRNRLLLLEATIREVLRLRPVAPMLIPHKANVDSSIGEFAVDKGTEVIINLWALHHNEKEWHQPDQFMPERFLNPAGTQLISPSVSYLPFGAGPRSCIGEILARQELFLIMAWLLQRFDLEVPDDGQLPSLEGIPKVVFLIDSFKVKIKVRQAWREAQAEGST

Cytochrome P450 7A1 [19] = target: T1, Cytochrome P450 7A1; experiment: Binding affinity to recombinant human CYP7A1 by spectrophotometric titration method; assay type: ADME; details: recombinant enzyme
MCF7 [20] = experiment: Downregulation of PCNA protein level in human MCF7 cells at 15 uM measured after 48 hrs by immunoblot analysis; assay type: functional, cell-based
MDA-MB-231 [21] = experiment: Antiproliferative activity against estrogen-independent human MDA-MB-231 cells assessed as inhibition of cell growth by MTT assay; assay type: functional, cell-based
MCF7 [22] = experiment: Antiproliferative activity against estrogen-responsive human MCF7 cells assessed as inhibition of cell growth by MTT assay; assay type: functional, cell-based

T1 sequence (P22680 whole entry): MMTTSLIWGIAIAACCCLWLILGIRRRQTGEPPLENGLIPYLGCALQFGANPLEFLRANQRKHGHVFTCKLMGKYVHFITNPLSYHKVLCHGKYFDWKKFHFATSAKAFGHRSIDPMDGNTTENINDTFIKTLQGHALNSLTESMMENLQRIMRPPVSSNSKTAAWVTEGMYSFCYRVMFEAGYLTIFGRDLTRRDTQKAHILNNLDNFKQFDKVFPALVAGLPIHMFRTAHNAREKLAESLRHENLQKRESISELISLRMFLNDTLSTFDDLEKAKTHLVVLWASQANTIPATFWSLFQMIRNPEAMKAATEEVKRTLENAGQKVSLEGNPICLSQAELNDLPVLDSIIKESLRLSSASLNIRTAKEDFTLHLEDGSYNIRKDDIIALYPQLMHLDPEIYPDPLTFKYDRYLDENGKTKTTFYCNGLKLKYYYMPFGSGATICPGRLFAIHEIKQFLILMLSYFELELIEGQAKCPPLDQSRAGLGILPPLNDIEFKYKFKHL

## CC(C)(C)NP(=O)(NC(C)(C)C)c1nncc2c1CC1CC[C@H]3[C@@H]4CC[C@H](O)[C@@]4(C)CC[C@@H]3[C@@]1(C)C2 (stereo partly specified)
Cytochrome P450 7A1 [1]
  Kd: 2.1 µM
MDA-MB-231 [2]
  IC50: > 25 µM
Cytochrome P450 7B1 [3]
  Kd: 1.7 µM
MCF7 [4]
  IC50: 22.1 µM

## C[C@]12CCC(=O)C=C1CC[C@@H]1[C@@H]2CC[C@]2(C)c3c(cnnc3P(=O)(Nc3ccccc3)Nc3ccccc3)C[C@@H]12
[5]
  IC50 at 72 h: > 50 µM
MCF7 [6]
  Activity: inactive
[7]
  Ratio IC50: >8.5
MCF7 [8]
  Activity: Dose-Dependent Effect
MCF7 [9]
  Activity: Active
MCF7 [10]
  Activity: Active
MCF7 [11]
  Activity: Dose-Dependent Effect
MCF7 [12]
  Activity: Active
Aromatase
  Activity: Not Active
MCF7 [13]
  Activity: Active
MCF7 [14]
  Activity: Active
MCF7 [15]
  Activity: Active
Cytochrome P450 7B1 [16]
  Activity: Not Active
Steroid 21-hydroxylase
  Activity: Not Active
MDA-MB-231 [2]
  IC50: 22 µM
MCF7 [17]
  Activity: inactive
[18]
  Activity: Not Active
Cytochrome P450 7A1 [19]
  Activity: Not Active
MCF7 [20]
  Activity: Active
MCF7 [4]
  IC50: 5.9 µM

## COc1ccc(NC(=O)c2nncc3c2[C@@]2(C)CC[C@H]4[C@@H](CC=C5C[C@@H](OC(C)=O)CC[C@@]54C)[C@@H]2C3)cc1
MDA-MB-231 [21]
  IC50: 12.5 µM

## CC(=O)O[C@H]1CC[C@@]2(C)C(=CC[C@@H]3[C@@H]2CC[C@]2(C)c4c(cnnc4C(=O)Nc4ccc(C(F)(F)F)cc4)C[C@@H]32)C1
MCF7 [22]
  IC50: 4.9 µM

— ChEMBL document CHEMBL5550194, “Design and synthesis of phosphoryl-substituted steroidal pyridazines (Pho-STPYRs) as potent estrogen receptor alpha inhibitors: targeted treatment of hormone-dependent breast cancer cells” (RSC Med Chem, 2024)
